Calls of active or inactive are those of the source. The rule behind the calls is not given here.
What was measured:
[1] = Toxicity in ip dosed CF-1 mouse after 48 hrs; conditions: in vivo
Rattus norvegicus [2] = test: Antihypertensive activity in spontaneously hypertensive rat assessed as drop in mean systolic blood pressure at 100 mg/kg, po after 24 hrs by tail cuff method relative to vehicle-treated control; type: functional, Artery
Rattus norvegicus [3] = test: Antihypertensive activity in spontaneously hypertensive rat assessed as drop in mean systolic blood pressure at 100 mg/kg, po followed by second dosing at 24 hrs measured after 28 hrs by tail cuff method relative to vehicle-treated control; type: functional, Artery
Rattus norvegicus [4] = test: Antihypertensive activity in spontaneously hypertensive rat assessed as drop in mean systolic blood pressure at 100 mg/kg, po followed by second dosing at 24 hrs measured after 48 hrs by tail cuff method relative to vehicle-treated control; type: functional, Artery
Rattus norvegicus [5] = test: Antihypertensive activity in spontaneously hypertensive rat assessed as drop in mean systolic blood pressure at 100 mg/kg, po after 4 hrs by tail cuff method relative to vehicle-treated control; type: functional, Artery

Structure (SMILES) | LD50 at 48 h [1] [mg/kg] | Activity (Rattus norvegicus [2]) [mmHg] | Activity (Rattus norvegicus [3]) [mmHg] | Activity (Rattus norvegicus [4]) [mmHg] | Activity (Rattus norvegicus [5]) [mmHg] | Activity (Rattus norvegicus [2]; Artery) | Activity (Rattus norvegicus [3]; Artery) | Activity (Rattus norvegicus [4]; Artery) | Activity (Rattus norvegicus [5]; Artery)
COc1ccc(-c2cnnc(NN)n2)cc1 | 56 | 26 | 38 | 22 | 48 | – | – | – | –
NNc1nncc(-c2cccc(C(F)(F)F)c2)n1 | 316 | 0 | 48 | 40 | 26 | – | – | – | –
Br.CC(C)C(N)C(=O)NNc1nncc(-c2ccc(Cl)cc2)n1.O (stereo unspecified) | 178 | – | – | – | – | – | – | – | –
CC(C)C(=O)NNc1nncc(-c2ccccc2)n1.Cl | 178 | 46 | 98 | 83 | 44 | – | – | – | –
Cc1ccc(-c2cnnc(NNC(=O)Cc3ccccc3)n2)cc1 | 237 | – | – | – | – | inactive | inactive | inactive | inactive
Cc1ccc(-c2cnnc(NNC(=O)C(F)(F)F)n2)cc1 | > 300 | – | – | – | – | inactive | inactive | inactive | inactive
Cl.O=C(Cc1ccccc1)NNc1nncc(-c2ccccc2)n1 | 237 | – | – | – | – | inactive | inactive | inactive | inactive
Cc1ccc(-c2cnnc(NNC(=O)C34CC5CC(CC(C5)C3)C4)n2)cc1.Cl | 216 | 0 | 24 | 30 | 32 | – | – | – | –
Cl.O=C(NNc1nncc(-c2ccc(Cl)cc2)n1)C(Cl)(Cl)Cl | 237 | – | – | – | – | inactive | inactive | inactive | inactive
O=C(NNc1nncc(-c2ccccc2)n1)C1CCCCC1 | 237 | 51 | 76 | 79 | 24 | – | – | – | –
CC(=O)NNc1nncc(-c2ccccc2)n1 | 178 | 94 | 106 | 104 | 40 | – | – | – | –
O=C(NNc1nncc(-c2ccccc2)n1)C(Cl)Cl | 178 | 54 | 106 | 80 | 33 | – | – | – | –
Br.CC(N)C(=O)NNc1nncc(-c2cccc(Cl)c2)n1.O (stereo unspecified) | 178 | – | – | – | – | inactive | inactive | inactive | inactive
O=C(NNc1nncc(-c2cccc(Cl)c2)n1)C(F)(F)F | 237 | 0 | 64 | 59 | 0 | – | – | – | –
O=C(CCl)NNc1nncc(-c2ccccc2)n1 | 100 | 74 | 101 | 55 | 63 | – | – | – | –
CC(=O)NNc1nncc(-c2ccc(Cl)c(Cl)c2)n1 | 237 | – | – | – | – | inactive | inactive | inactive | inactive
NNc1nncc(-c2ccc(Cl)cc2)n1 | 237 | 61 | 90 | 87 | 52 | – | – | – | –
CC(=O)NNc1nncc(-c2ccc(C)cc2)n1.O | > 300 | – | – | – | – | inactive | inactive | inactive | inactive

Structure (SMILES) | LD50 at 48 h [1] [mg/kg] | Activity (Rattus norvegicus [2]) [mmHg] | Activity (Rattus norvegicus [3]) [mmHg] | Activity (Rattus norvegicus [4]) [mmHg] | Activity (Rattus norvegicus [5]) [mmHg] | Activity (Rattus norvegicus [2]; Artery) | Activity (Rattus norvegicus [3]; Artery) | Activity (Rattus norvegicus [4]; Artery) | Activity (Rattus norvegicus [5]; Artery)
CCC(=O)NNc1nncc(-c2ccc(Cl)cc2)n1 | 237 | 79 | 107 | 111 | 47 | – | – | – | –
Cc1ccc(-c2cnnc(NN)n2)cc1.O | 224 | 28 | 75 | 38 | 62 | – | – | – | –
O=C(NNc1nncc(-c2ccccc2)n1)C(F)(F)F | 178 | 29 | 70 | 88 | 51 | – | – | – | –
CNNc1nncc(-c2ccccc2)n1 | 178 | 49 | 56 | 92 | 0 | – | – | – | –
O=C(NNc1nncc(-c2ccccc2)n1)c1ccccc1 | > 300 | – | – | – | – | inactive | inactive | inactive | inactive
CNNc1nncc(-c2ccc(C)cc2)n1 | 316 | – | – | – | – | inactive | inactive | inactive | inactive
Br.CC(N)C(=O)NNc1nncc(-c2ccc(Cl)cc2)n1.O (stereo unspecified) | 237 | 58 | 91 | 103 | 44 | – | – | – | –
NNc1nncc(-c2ccc(Cl)c(Cl)c2)n1 | > 300 | – | – | – | – | inactive | inactive | inactive | inactive
NNc1nncc(-c2cccc(Cl)c2)n1 | 237 | 0 | 55 | 51 | 0 | – | – | – | –
COc1ccc(-c2cnnc(NNC(C)=O)n2)cc1 | 237 | – | – | – | – | inactive | inactive | inactive | inactive
O=C(CCCl)NNc1nncc(-c2ccc(Cl)cc2)n1 | 237 | – | – | – | – | inactive | inactive | inactive | inactive
CNNc1nncc(-c2cccc(Cl)c2)n1 | 237 | 35 | 63 | 51 | 28 | – | – | – | –
CCCCCC(=O)NNc1nncc(-c2ccccc2)n1.Cl | 178 | 53 | 81 | 68 | 53 | – | – | – | –
CNNc1nncc(-c2ccc(Cl)cc2)n1 | 316 | 12 | 39 | 53 | 0 | – | – | – | –
O=C(CCCCl)NNc1nncc(-c2ccc(Cl)cc2)n1 | 237 | 25 | 48 | 73 | 0 | – | – | – | –
Br.NC(Cc1ccccc1)C(=O)NNc1nncc(-c2ccccc2)n1.O (stereo unspecified) | 178 | 38 | 75 | 82 | 26 | – | – | – | –
O=C(NNc1nncc(-c2ccc(Cl)cc2)n1)C(F)(F)F | 237 | 46 | 92 | 74 | 30 | – | – | – | –
